The text below walks through data of US8642337B2, “Defined surfaces of self-assembled monolayers and stem cells” (Wisconsin Alumni Research Foundation, priority 2005, dated 2014).

For one experiment, the system named is hES cells (H1 and H9). As to the kind of experiment: hES cell adhesion and growth screen on arrays of SAMs presenting peptides. The format is cell-based, human. The following applies: for Ability to support ES cell growth: laminin fragment screen on SAM array. How it is done: Human Embryonic Stem Cell Propagation and Plating: The human ES cell line, H1, was grown on Matrigel®-coated plates in MEF-CM supplemented with 4 ng/mL basic fibroblast growth factor (bFGF). To produce CM, MEFs were seeded at a density of 2.12×10^5 cells/mL and fed medium consisting of DMEM/F12, 20% Knockout™ serum replacement, 2 mM L-glutamine, 1% minimal essential media nonessential amino acids and 0.1 mM β-mercaptoethanol. Both cell lines (H1 and MEF) were maintained at 37° C./5% CO2 with CM collected, and cells fed approximately every 24 hours. Cell suspensions were made by treating with collagenase IV (1 mg/mL) for 10-12 minutes. The cells were scraped from the surface and suspended in CM.
Chips were sterilized as described above. To aid in ES cell patterning, the chips were then soaked in DMEM/F12 with 15% defined FBS for 1-2 hours and washed thoroughly. Then cells were plated on each chip (1-2×10^6 cells/chip) and allowed to incubate overnight. The next morning the chips were moved to fresh wells and fed with CM.
Test for alkaline phosphatase activity: The procedure for staining for alkaline phosphatase activity was essentially identical to the procedure supplied by the manufacturer. After propagation of the ES cells, the media was removed. The reagents in 100 mM Tris pH 8.5 were incubated with the chips for 30 minutes at 25° C. The chips were washed gently for 5 min with Tris buffer and then fixed and dried as usual.
We tested arrays of SAMs presenting a number of short peptides for their ability to support the growth of undifferentiated hES cells. The screen was done with the array presenting square elements of 0.5×0.5 mm (FIG. 1b) or 0.8×0.8 mm size (FIG. 1c). The 0.5×0.5 mm allowed 196 binding elements to be located on a single 22 mm square chip, and in turn the chip can easily fit in one well of a six-well culture plate. The ability of microarrays to localize multiple experiments to same a solution environment is invaluable for applications requiring frequent maintenance. For example, cultures of undifferentiated ES cell require daily changes of growth media. These changes can be easily performed on the entire microarray in one large well of a cell culture plate. For comparison, daily maintenance of experiments, on the same scale, performed in two 96-well plates, while practical, would require either significant human labor or specialized robotic equipment to function in a sterile environment to perform daily maintenance.
Cells grown on Matrigel® were detached using collagenase treatment and were plated on the microarray chip in the presence of CM. After twenty-four hours, media was replaced to remove dead and non-adherent cells. Attached cells were allowed to proliferate on the chip for five to six days and were supplement with fresh conditioned growth media daily. The experiment was stopped once cells reached 100% density in several (but not all) array elements. If continued, the cells in the array elements presenting 100% cell density usually detached, yielding square-shaped sheets of cells floating in solution, while cells in the other elements continued proliferation (not shown). This observation is consistent with those made earlier indicating cell growth variability in multi-component arrays and importance of the balanced duration of the experiment. Once the experiment was stopped, the cells were fixed and stained for markers of hES cell pluripotency. […]

In a further experiment the test system is hES cells (H1B). As to the kind of experiment: Differentiation experiment: Oct-4 immunofluorescence on peptide surface arrays. Format: cell-based, human. The following applies: cultured on arrays thirteen days. The source says: Differentiation Experiment: SIDQVEPYSSTAQ (FGF, SEQ ID NO:8) is known to bind FGF receptor. FGF signaling, in turn, can suppress hES cell differentiation. […] (SEQ ID NO:9) is known to bind BMP-receptor. BMP signaling induces hES cell differentiation. KKQRFRHRNRKG (VHB, SEQ ID NO:10) is a heparin binding motif from vitronectin. Vitronectin supports hES cell adhesion. RGD peptide is known to bind cell surface receptors (integrins) involved in adhesion of various cell types.
hES cells (H1B) were passaged using the protease dispase from Matrigel® to the peptide surface arrays described above containing either BMP/RGD, BMP/VHB, FGF, FGF/RGD or FGF/VHB at various concentrations. hES cells were cultured on the arrays for thirteen days, fixed and stained by immunofluorescence. The cells were stained for a marker of pluripotency, Oct-4 (Green), and counterstained with DAPI (Blue).

Another experiment relates to hES cells. As to the kind of experiment: FACS analysis of ES cells proliferated on large areas presenting synthetic substrates (one-component SAMs). Format: cell-based, human. The following applies: for Oct4 (% population): FACS, ES cells on one-component SAMs on 22×22 mm gold-coated substrates, after 1 week. An excerpt: Examination of the cell population within an array element provides a semi-quantitative indication of differentiation state of the ES cells. More rigorous analysis involves fluorescence-activated cell sorting (FACS) measurements to identify what population of the cells express specific markers of pluripotent stem cells. Therefore, we proliferated hES cells on gold-coated substrates of larger area (22×22 mm) containing one-component SAMs. FIG. 2a illustrate a representative FACS analysis of an ES cell population grown on a synthetic substrate after 1 week. Table 1 outlines the percentages of Oct4 positive cells obtained from each particular substrate. […] Specifically, we tested hES cell line H9 grown in synthetic media supplemented with high concentrations of basic FGF (referred to as UM100, indicating presence of […] of FGF-2 among the other components). Importantly, these conditions support growth of undifferentiated hES cells on Matrigel®.

Experiment [1] deals with Swiss 3T3 fibroblast cells. Nature of the experiment: Fibroblast adhesion on patterned SAM chips/arrays. The format is cell-based. As for the experimental part:
(§1) General Preparation of the Arrays of Self-Assembled Monolayers (Assembly After Conjugation Strategy): Chromium (1 nm) and then gold (25 nm) were evaporated onto piranha-cleaned glass coverslips (Corning No […], 23 mm squares) using a thermal evaporator (Denton Vacuum, Moorestown, N.J.). Substrates were immediately immersed into a 1 mM solution of fluoro-AT in absolute ethanol. After twenty-four hours, substrates were thoroughly rinsed with ethanol and dried under a stream of nitrogen. Coverslips with fluoro-AT SAM were irradiated with UV-light (1 kW, Hg—Xe Research Arc Lamp, Oriel Instruments (Spectra-Physics, Stratford, Conn.) through a quartz photomask (array of 500 μm or 750 μm squares, 0.067 quartz-chromium mask (Photo Sciences, Torrance, Calif.)) for 1 hour. Irradiated samples were rinsed thoroughly using several repetitive washes with absolute ethanol and distilled water and dried under a steam of nitrogen. Spotting of AT solutions onto the bare gold areas was performed within two hours of the photolithography. Spotting was performed manually using a P2-Pipetman (Gilson) in a humidity chamber. Spotted arrays were stored in the humidity chamber for twelve hours and thoroughly washed using repeated washes with ethanol and water. Rapid flow during washing was used to prevent cross-contamination of array spots.
Cell Culture: A neuroblastoma cell line, SH-SY5Y, was grown in 10% heat-inactivated fetal bovine serum (HI FBS), 45% high glucose Dulbecco's modified Eagle medium (DMEM), 45% Ham's F12 nutritional supplement (F12) with penicillin and streptomycin in an atmosphere of 5% CO2 at 37° C. A fibroblast cell line, Swiss 3T3, was propagated in 10% HI FBS in DMEM. For plating of the cells on the chips, cells were incubated at 37° C. with 5% trypsin/ethylenediamine-tetraacetic acid (EDTA), centrifuged and resuspended in media at 2×10^5 cells/mL and 5×10^5 cells/mL for the fibroblasts and neuroblastomas, respectively. Chips were sterilized by placing each in a single well of a 6-well plate, soaking in 70% ethanol, and drying under UV light for 1 hour. […]

Experiment [2] relates to SH-SY5Y neuroblastoma cells. As to the kind of experiment: Neuroblastoma adhesion on patterned SAM chips/arrays. Format: cell-based. How it is done:
as §1
Cell Culture: A neuroblastoma cell line, SH-SY5Y, was grown in 10% heat-inactivated fetal bovine serum (HI FBS), 45% high glucose Dulbecco's modified Eagle medium (DMEM), 45% Ham's F12 nutritional supplement (F12) with penicillin and streptomycin in an atmosphere of 5% CO2 at 37° C. A fibroblast cell line, Swiss 3T3, was propagated in 10% HI FBS in DMEM. For plating of the cells on the chips, cells were incubated at 37° C. with 5% trypsin/ethylenediamine-tetraacetic acid (EDTA), centrifuged and resuspended in media at 2×10^5 cells/mL and 5×10^5 cells/mL for the fibroblasts and neuroblastomas, respectively. Chips were sterilized by placing each in a single well of a 6-well plate, soaking in 70% ethanol, and drying under UV light for 1 hour. To the individual chips was added 3 mL of the cell suspensions to each well. After 2-5 hours, the media was gently replaced three times and the chips were picked up, transferred to a clean well and 3 mL of media was added. The cells on the chips were typically propagated between 1-7 days. The media was then removed, and the cells were fixed in PFA buffer (2% paraformaldehyde, 350 mM NaCl, 150 mM HEPES, 10 mM CaCl2, pH 7.4) for 20 minutes at 0° C. The cells were washed twice with Dulbecco's phosphate buffered saline and stained (0.1% Coomassie Brilliant Blue in H2O/MeOH/AcOH (50:50:1)) for 5-15 minutes after which the cells were washed twice with water and air dried. […]

No end group written: not given here.

With GNRWHSIYITRFG, the “Ability to support ES cell growth” value with hES cells (H1 and H9) is “support ES cell growth”.

Consider “FGF: peptide known to bind FGF receptor (SIDQVEPYSSTAQ)”, for which the “hES cell self-renewal / Oct-4 expression” value with hES cells (H1B) is reported as “no longer express Oct-4”.

Regarding “DITYVRLKF (not fully specified (C-terminus); also: alkane thiol SAM)”, the “Oct4 (% population)” value with hES cells is 99.78 % population. Moreover, in the experiment on hES cells (hES cell line H9, UM100 media (100 mg/ml of FGF-2), 1 week of culture), the “Oct4 expression by FACS” value is “high level of Oct4 expression”.

For the compound “GRNIAEIIKDI (not fully specified (C-terminus); also: alkane thiol SAM)”, the “Cell binding to peptide on surface density gradient array” value in the experiment with hES cells (H1 and H9) (H1 cells, peptide-AT co-assembled with glucamine-AT) is on record as “exhibits specific binding”. Besides, the “Oct4 (% population)” value in the experiment with hES cells is 98.12 % population.

Turning to “YIGSR: sequence found in the matrix protein laminin, presented as peptide-AT array element (not fully specified (C-terminus); also: AT array conjugate) [reference compound]”, in the experiment with hES cells (H1 and H9), the “Ability to support ES cell growth” value is “support ES cell growth”. Also, in experiment [1] (fibroblasts, mixtures of polyol-AT and peptide-AT spotted), the “Cell binding to peptide array element” value was “bound modestly”. Besides, the “Cell adherence to peptide array element” value in experiment [2] (neuroblastoma cells, mixtures of polyol-AT and peptide-AT spotted) is listed as “adhered”.

With “SDPGYIGSR (not fully specified (C-terminus); also: SAM immobilized) [laminin peptide containing YIGSR recognition motif, presented on SAM in either orientation]”, the ES cell adhesion result with hES cells (H1 and H9) (N-to-C orientation exposing YIGSR moiety) is “supports cell adhesion for ES cells, albeit with moderate reproducibility”; in the experiment with hES cells (H1 and H9) (switched surface orientation, exposing SDPG-portion, same plating environment), “obliterates cell adhesion”.

Regarding `O=C(O)COCCOCCOCCOCCOCCCCCCCCCCCS` [PEG acid-AT], the “Measured cell adhesion versus mole fraction of acid” value is given as “decreased as the mole fraction of the acid in the spotting solutions approached 0.2” in experiment [1] (Swiss 3T3, PEG acid-AT diluted with polyol-AT in spotting solutions) and “decreased as the mole fraction of the acid in the spotting solutions approached 0.2” in experiment [2] (SH-SY5Y, PEG acid-AT diluted with polyol-AT in spotting solutions). In addition, the “Cell growth on surface” value is “dense squares of cells” in experiment [1] (Swiss-3T3, chips with fluoro-AT SAM background and PEG acid-AT squares made by immersion); “dense squares of cells” in experiment [2] (SH-SY5Y, chips with fluoro-AT SAM background and PEG acid-AT squares made by immersion). In experiment [2] (SH-SY5Y, SAMs formed by spotting AT solutions on bare gold squares), the “Cell binding to spotted SAM” value is on record as “cells affixed to only the expected cytophilic surface”.

For “DIRVTLNRL (not fully specified (C-terminus); also: alkane thiol SAM)”, in the experiment with hES cells, the “Oct4 (% population)” value stood at 99.62 % population.

As to “GRYVVLPR (not fully specified (C-terminus); also: alkane thiol SAM)”, the “Oct4 (% population)” value in the experiment with hES cells is 98.99 % population.
